Data published in patent EP0666253A1, “N-t-BUTYLANILINE ANALOG AND LIPID LEVEL DEPRESSANT CONTAINING THE SAME” (priority 1992, dated 1994).
Structures can show the parent of a compound that is named as a salt. Where two headings read alike, the source gives them in different places.

Assays:
[1] = in vivo; conditions: mouse
Description: Acute toxicity was examined in the Litchfield and Wilcoxon's method where 10 ICR male mice were orally given a test compound.
The LD₅₀ of clofibrate was 1600 mg/kg.

[2] = system: lipid level in blood; experiment: Action on the lipid level in blood (rats on high cholesterol feed); type: in vivo, Male Wistar strain rats; conditions: Rattus norvegicus, relative to the control, oral 25 mg/kg/day, starved 24 hours after final administration; for change in vivo at 25 mg/kg/day: high density lipoprotein-cholesterol, read-out: HDL-Ch increase rate
Description: Male Wistar strain rats with weights of about 200 g were given a high cholesterol feed containing 1 % cholesterol and 0.5 % cholic acid. Simultaneously, a suspension of a test compound in 5 % aq. gum arabic was orally administered in an amount of 25 mg/kg/day. After the final administration, the animals were starved for 24 hours and then evaluated for serum total cholesterol (TC), high density lipoprotein-cholesterol (HDL-Ch) and serum triglyceride (TG) content. The control group was orally given 5 % aq. solution of gum arabic. […] In Table 4, test compounds Nos. 1 to 11 correspond respectively to the hydrochlorides of the compounds of Examples 1 to 11.

[3] = system: hepatic parenchymal cells; experiment: Action on incorporation of LDL (radioisotope-labeled LDL, primary culture); type: cell-based, male Wistar strain rat; conditions: Rattus norvegicus; relative to the control (DMSO only); test compound 10 µg/ml, incubated 24 hours, then labeled LDL for 4 hours; read-out: incorporation ratio of LDL
Description: hepatic cells were separated from the liver of a male Wistar strain rat weighing about 200 g, and the hepatic parenchymal cells were incubated in primary culture. 48 hours thereafter, a solution of a test compound in dimethylsulfoxide (DMSO) (10 µg/ml) was added thereto and incubated for 24 hours. Then, a radioisotope-labeled low density lipoprotein (LDL) was added thereto, and incubation was continued for further 4 hours. The cells were washed with physiological saline and then lysed with sodium dodecyl sulfate (SDS), and their radioactivity was determined in a liquid scintillation counter. The control group was treated in the same manner as above except for the addition of DMSO only. […] In Table 5, the test compounds 1 to 11 correspond respectively to the hydrochlorides of the compounds of Examples 1 to 11.

[4] = serum total cholesterol, suspension in 5 % aq. gum arabic, read-out: TC decrease rate
[5] = serum triglyceride, read-out: TG decrease rate

SMILES | LD50 ([1]; oral, 10 ICR male mice, read-out: LD₅₀) [mg/kg] | change in vivo at 25 mg/kg/day [2] [%] | inhibition in vivo at 25 mg/kg/day [2, 4] [%] | inhibition in vivo at 25 mg/kg/day [2, 5] [%] | activation at 10 µg/mL [3] [%] | LD50 ([1]; male, ICR, po) [mg/kg]
CC(C)(C)Nc1ccc(Sc2ccccc2)cc1 [test compound 1, 4-(t-butylamino)diphenylsulfide hydrochloride] | > 5000 | 39.4 | 95.7 | 48.5 | 65.3 | 
CCN(CC)c1ccc(Sc2ccc(C)cc2)cc1 [compound of Reference Example 4, N,N-diethyl-4-(4-tolylthio)aniline] |  |  | -16.2 | 30 |  | 
CC(C)(C)N(c1ccc(Oc2ccccc2)cc1)S(C)(=O)=O [compound of Reference Example 3, 4-(N-t-butyl)methanesulfonylaminodiphenyl ether] |  | -0.7 | 3.6 | -2.1 | -15.7 | 
CCOC(=O)C(C)(C)Oc1ccc(Cl)cc1 [clofibrate] |  | -1.6 | 1.2 | -0.9 | -10.5 | 1600
